Experimental data taken from article PMC10743895, “Synthesis of 1,3,4-Thiadiazole Derivatives and Their Anticancer Evaluation” (International Journal of Molecular Sciences, 2023).
pIC50: −log10 of the molar value. Read-outs that look alike come from different tables or passages of the source.

Columns and labels:
HUVEC normal cells = test: MTS cell viability assay, HUVEC normal cells; type: cell-based, human
Description: (§1) To determine the optimal working concentration, dose-effect curves were made for each compound in the range of concentrations between 6.25 and 400 μM.
(§2) LoVo (human colorectal adenocarcinoma) human cancer cell line and HUVEC normal cells were purchased from American Type Culture Collection (ATCC). The MCF-7 human breast adenocarcinoma cell line was provided from European Collection of Authenticated Cell Cultures (ECACC). HUVEC normal cells, isolated from the vascular endothelium of an umbilical cord, were used as a reference. Adherent cells were maintained in culture in Dulbecco’s modified Eagle medium/nutrient mixture F-12 (DMEM:F12) with 2 mM of L-glutamine, 10% fetal bovine serum, 100 units/mL of penicillin and 100 μg/mL of streptomycin, and incubated at 37 °C in a 5% CO2-humidified atmosphere. After 24 h, adherent cells were treated with different concentrations of the compounds for different periods of time. Cis-Pt and DOX, conventional oncology drugs used in cancer treatments, can be used as a positive control of the experiments. […] Then, cells were detached with a nonenzymatic solution of phosphate-buffered saline (PBS)/1 mM EDTA and washed twice in PBS.
(§3) The study utilized a colorimetric assay based on MTS (chemically known as 3-(4,5-dimethylthiazol-2-yl)-5-(3-carboxymethoxyphenyl)-2-(4-sulfophenyl)-2H-tetrazolium) and called CellTiter 96 Aqueous One Solution Cell proliferation Assay (Promega, Madison, WI, USA) in order to measure cell viability. The assay was performed in triplicate in 96-well microtiter plates with a flat bottom (Falcon). A number of 1 × 10^4 cells/well were cultured in 100 μL for 24 h, culture supernatants were discarded, and then cells were treated for 24 and 48 h with increasing concentrations of the tested compound. After the end of the incubation time, 20 μL of the reagent containing MTS and PES (phenazine ethosulfate) was added in each well. Plates were incubated for 4 h at 37 °C, with mild agitation every 15 min. The reduction in the tetrazolium compound to formazan was spectrophotometrically measured at λ = 492 nm using a Dynex plate reader (DYNEX Technologies MRS, Chantilly, VA, USA). The percentage of viability compared to untreated cells (considered 100% viable) was calculated with the formula:(1) Cell viability (%)=Absorbance treated cells−Absorbance culture medium/Absorbance untreated cells−Absorbance culture medium×100
(§4) The cell viability compared was calculated and data were expressed as a mean ± standard deviation (SD) of the experiments and obtained in triplicate (n = 3).

LoVo cells [1] = test: MTS cell viability assay, LoVo cells; type: cell-based, human
Description: as §1, §2, §3, §4

MCF-7 cells [2] = test: MTS cell viability assay, MCF-7 cells; type: cell-based, human; conditions: for pIC50: Homo sapiens
Description: as §1, §2, §3, §4

HUVEC cells = test: Apoptosis assay (Annexin V-FITC/PI flow cytometry), HUVEC; type: cell-based, human
Description: (§5) Two reference concentrations, 5 μM and 50 μM, and two distinct treatment durations, 24 and 48 h, were employed to assess the influence of the test compounds on apoptosis in both normal and tumor cells. […] HUVEC cells were exposed to both drugs.
(§6) The apoptosis assay was performed according to the manufacturer’s instructions using the Annexin V-FITC kit (BD Biosciences, San Jose, CA, USA). Cells untreated and treated with the experimental compound were suspended in a cold binding buffer. The percentages of apoptotic cells were determined by double staining with Annexin V-FITC/PI. In each tube was added 400 μL of Annexin V binding buffer and the 5000 cells/sample for 15 min in the dark at room temperature. The cells were analyzed using a FACSCantoII flow-cytometer (Becton Dickinson—BD, La Jolla, CA, USA). The analysis was performed using DIVA 6.2 software to discriminate viable cells (FITC-PI-) from necrotic cells (FITC + PI+), and early apoptosis (FITC + PI) from late apoptosis.

LoVo cells [3] = test: Apoptosis assay (Annexin V-FITC/PI flow cytometry), LoVo; type: cell-based, human
Description: as §5, §6

MCF-7 cells [4] = test: Apoptosis assay (Annexin V-FITC/PI flow cytometry), MCF-7; type: cell-based, human
Description: as §5, §6

Daphnia magna = Daphnia magna toxicity assay; type: in vivo; conditions: for Maximum Average L% (lethality): up to 200 µM
Description: (§7) The Daphnia magna bioassay results are presented in Table 3 as the maximum average percentage of lethality (L%) registered for each compound and the median lethal concentration (LC50) if the values permitted its calculation.
(§8) Daphnia magna Straus is parthenogenetically maintained at ‘Carol Davila’ University’s Department of Pharmaceutical Botany and Cell Biology. The culture was consistently maintained at a temperature of 25 °C, with a 16-h light and 8-h dark photoperiod. To ensure consistency, young daphnids were carefully chosen based on their size and kept in an artificial medium for 24 h prior to the assessment. The bioassay involved 10 daphnids per replicate, using tissue culture plates with 12 wells from Greiner Bio-One. The experimental procedure followed the protocol described in previous studies.
(§9) Each determination was carried out in duplicate.

[5] = Daphnia magna toxicity assay; type: in vivo; conditions: Daphnia magna, in vivo; 48 h
Description: as §7, §8, §9

[6] = Homo sapiens, HUVEC, read-out: IC50 (48 h) HUVEC, 48 h exposure
[7] = Homo sapiens, HUVEC, 24 h exposure, read-out: IC50 (24 h) HUVEC
[8] = Homo sapiens, LoVo, read-out: IC50 (48 h) LoVo, 48 h exposure
[9] = Homo sapiens, LoVo, 24 h exposure, read-out: IC50 (24 h) LoVo
[10] = MCF7, read-out: IC50 (48 h) MCF-7, 48 h exposure
[11] = MCF7, 24 h exposure, read-out: IC50 (24 h) MCF-7

Compound | pIC50 (LoVo cells [1]; [8]) | pIC50 (LoVo cells [1]; [9]) | pIC50 (MCF-7 cells [2]; [10]) | pIC50 (MCF-7 cells [2]; [11]) | pIC50 (HUVEC normal cells; [6]) | pIC50 (HUVEC normal cells; [7]) | Total Apoptosis (%) 24 h HUVEC (HUVEC cells; 5 μM) | Total Apoptosis (%) 48 h HUVEC (HUVEC cells; 5 μM) | Total Apoptosis (%) 24 h HUVEC (HUVEC cells; 50 μM) | Total Apoptosis (%) 48 h HUVEC (HUVEC cells; 50 μM) | Total Apoptosis (%) 24 h LoVo (LoVo cells [3]; 5 μM) | Total Apoptosis (%) 48 h LoVo (LoVo cells [3]; 5 μM) | Total Apoptosis (%) 24 h LoVo (LoVo cells [3]; 50 μM) | Total Apoptosis (%) 48 h LoVo (LoVo cells [3]; 50 μM) | Total Apoptosis (%) 24 h MCF-7 (MCF-7 cells [4]; 5 μM) | Total Apoptosis (%) 48 h MCF-7 (MCF-7 cells [4]; 5 μM) | Total Apoptosis (%) 24 h MCF-7 (MCF-7 cells [4]; 50 μM) | Total Apoptosis (%) 48 h MCF-7 (MCF-7 cells [4]; 50 μM) | Maximum Average L% (lethality) (Daphnia magna; 24 h) | Maximum Average L% (lethality) (Daphnia magna; 48 h) | further results
COc1cc(-c2nnc(N)s2)cc(OC)c1OC [2e, 5-(3,4,5-Trimethoxyphenyl)-1,3,4-thiadiazol-2-amine] | 4.10 | 3.97 | < 3.40 | < 3.40 | 3.52 | < 3.40 | 26.3% | 13.1% | 24.3% | 15.5% | 4.9% | 14.3% | 16.4% | 19.9% | 9.1% | 24.6% | 14.9% | 34.2% | 0% | 5% | 
Nc1nnc(-c2ccccc2)s1 [2a, 5-Phenyl-1,3,4-thiadiazol-2-amine] | 4.21 | 3.69 | < 3.40 | < 3.40 | 4.08 | < 3.40 | 12.8% | 14.7% | 15.0% | 18.4% | 9.0% | 17.6% | 8.9% | 13.7% | 11.8% | 24.4% | 9.8% | 24.7% | 0% | 40% | 
Cc1ccc(-c2nnc(N)s2)cc1 [2b, 5-(4-Methylphenyl)-1,3,4-thiadiazol-2-amine] | 3.90 | 3.87 | < 3.40 | < 3.40 | 4.15 | < 3.40 | 16.7% | 15.7% | 13.6% | 16.6% | 6.9% | 14.0% | 6.3% | 12.3% | 8.0% | 16.7% | 8.4% | 25.4% | 10% | 55% | LC50 at 48 h [5]: 144 µM
N.N.[Cl][Pt][Cl] [Cis-Pt, Cisplatin, reference compound] |  |  |  |  |  |  | 15.7% | 14.8% | 21.7% | 17.4% | 15.7% | 31.6% | 24.5% | 38.7% |  |  |  |  |  |  | pIC50 (HUVEC normal cells; 24 h exposure, read-out: IC50 (24 h) HUVEC): 4.95; pIC50 (HUVEC normal cells; read-out: IC50 (48 h) HUVEC, 48 h exposure): 5.08; pIC50 (LoVo cells [1]; 24 h exposure, read-out: IC50 (24 h) LoVo): 4.89; pIC50 (LoVo cells [1]; read-out: IC50 (48 h) LoVo, 48 h exposure): 4.10
Nc1nnc(-c2ccccc2CSc2ccccc2)s1 [2f, 5-[2-(Phenylthiomethyl)phenyl]-1,3,4-thiadiazol-2-amine] | 4.09 | < 3.40 | < 3.40 | < 3.40 | < 3.40 | < 3.40 | 19.9% | 15.9% | 18.6% | 14.6% | 14.9% | 27.0% | 8.2% | 17.4% | 22.0% | 44.0% | 12.6% | 45.0% | 5% | 10% | 

The next lines start with results.

pIC50 (LoVo cells [1]; [8]) | pIC50 (LoVo cells [1]; [9]) | pIC50 (MCF-7 cells [2]; [10]) | pIC50 (MCF-7 cells [2]; [11]) | Compound | pIC50 (HUVEC normal cells; [6]) | pIC50 (HUVEC normal cells; [7]) | Total Apoptosis (%) 24 h HUVEC (HUVEC cells; 5 μM) | Total Apoptosis (%) 48 h HUVEC (HUVEC cells; 5 μM) | Total Apoptosis (%) 24 h HUVEC (HUVEC cells; 50 μM) | Total Apoptosis (%) 48 h HUVEC (HUVEC cells; 50 μM) | Total Apoptosis (%) 24 h LoVo (LoVo cells [3]; 5 μM) | Total Apoptosis (%) 48 h LoVo (LoVo cells [3]; 5 μM) | Total Apoptosis (%) 24 h LoVo (LoVo cells [3]; 50 μM) | Total Apoptosis (%) 48 h LoVo (LoVo cells [3]; 50 μM) | Total Apoptosis (%) 24 h MCF-7 (MCF-7 cells [4]; 5 μM) | Total Apoptosis (%) 48 h MCF-7 (MCF-7 cells [4]; 5 μM) | Total Apoptosis (%) 24 h MCF-7 (MCF-7 cells [4]; 50 μM) | Total Apoptosis (%) 48 h MCF-7 (MCF-7 cells [4]; 50 μM) | Maximum Average L% (lethality) (Daphnia magna; 24 h) | Maximum Average L% (lethality) (Daphnia magna; 48 h) | further results
 |  | 4.06 | 3.89 | COc1cccc2c1C(=O)c1c(O)c3c(c(O)c1C2=O)C[C@@](O)(C(=O)CO)C[C@@H]3O[C@H]1C[C@H](N)[C@H](O)[C@H](C)O1 [DOX, Doxorubicin, reference compound] | 5.87 | 5.99 | 15.2% | 9.5% | 18.6% |  |  |  |  |  |  | 33.6% | 19.0% | 49.0% |  |  | 
3.93 | 3.79 | 3.40 | < 3.40 | Nc1nnc(-c2ccc(O)c(O)c2)s1 [2c, 5-(3,4-Dihydroxyphenyl)-1,3,4-thiadiazol-2-amine] | 3.81 | < 3.40 | 16.6% | 15.6% | 12.1% | 12.1% | 7.5% | 13.0% | 6.8% | 13.8% | 11.7% | 26.6% | 7.6% | 15.1% | 0% | 25% | viability of MCF-7 cells (MCF-7 cells [2]; 48-h period): less than 50%
5.61 | 4.74 | 4.63 | 4.36 | Nc1nnc(-c2ccccc2CS(=O)(=O)c2ccccc2)s1 [2g, 5-[2-(Benzenesulfonylmethyl)phenyl]-1,3,4-thiadiazol-2-amine] | 4.35 | < 3.40 | 19.0% | 14.7% | 19.3% | 14.1% | 13.6% | 23.6% | 19.6% | 24.8% | 18.7% | 42.2% | 19.7% | 44.5% | 0% | 20% | lethality percentages in the Daphnia test (Daphnia magna; even at the highest concentration of 200 µM): below 20%
